Molecular target: Solute carrier family 12 member 2 (Homo sapiens) (UniProt P55011)
Assay: SLC12A2 cotransporter inhibitors, dose response, HEK-293 overexpressing cells, thallium flux (AID 1919674)
Settings: HEK-293 SLC12A2 OE, thallium flux fluorescence (FLIPR)

Chain of Solute carrier family 12 member 2 (Homo sapiens) (P55011 whole entry, looked up): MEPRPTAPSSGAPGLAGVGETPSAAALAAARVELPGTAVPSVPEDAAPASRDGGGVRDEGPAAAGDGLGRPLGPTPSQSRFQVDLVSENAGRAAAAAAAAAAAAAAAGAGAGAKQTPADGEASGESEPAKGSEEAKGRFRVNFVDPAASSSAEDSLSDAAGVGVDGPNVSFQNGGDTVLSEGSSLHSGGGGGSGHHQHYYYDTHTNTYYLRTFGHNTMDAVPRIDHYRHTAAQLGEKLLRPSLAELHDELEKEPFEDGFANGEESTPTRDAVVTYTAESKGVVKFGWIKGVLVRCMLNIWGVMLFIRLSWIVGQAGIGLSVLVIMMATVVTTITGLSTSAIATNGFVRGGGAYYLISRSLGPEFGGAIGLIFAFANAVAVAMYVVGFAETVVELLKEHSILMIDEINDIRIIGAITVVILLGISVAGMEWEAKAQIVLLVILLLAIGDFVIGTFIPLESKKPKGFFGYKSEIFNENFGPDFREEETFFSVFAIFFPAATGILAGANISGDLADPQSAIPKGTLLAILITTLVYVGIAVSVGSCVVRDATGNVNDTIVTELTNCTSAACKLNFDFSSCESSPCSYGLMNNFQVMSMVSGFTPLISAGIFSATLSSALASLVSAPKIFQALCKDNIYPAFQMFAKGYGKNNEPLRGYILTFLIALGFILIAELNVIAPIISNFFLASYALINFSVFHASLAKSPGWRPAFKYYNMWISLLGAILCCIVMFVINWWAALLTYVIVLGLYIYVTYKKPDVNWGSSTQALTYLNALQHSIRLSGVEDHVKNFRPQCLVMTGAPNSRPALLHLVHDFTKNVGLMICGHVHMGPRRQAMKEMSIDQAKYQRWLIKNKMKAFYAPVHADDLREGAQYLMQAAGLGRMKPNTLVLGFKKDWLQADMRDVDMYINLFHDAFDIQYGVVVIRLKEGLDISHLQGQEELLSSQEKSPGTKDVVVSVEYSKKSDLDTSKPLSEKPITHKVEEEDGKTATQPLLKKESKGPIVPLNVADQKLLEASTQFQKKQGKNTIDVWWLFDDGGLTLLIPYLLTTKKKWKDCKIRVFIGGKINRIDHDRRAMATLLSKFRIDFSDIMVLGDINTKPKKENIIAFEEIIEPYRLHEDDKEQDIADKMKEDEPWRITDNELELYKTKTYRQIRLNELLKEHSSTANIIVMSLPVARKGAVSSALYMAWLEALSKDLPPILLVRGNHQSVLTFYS

SMILES: [Tl+]
- IC50: 600 µM

Source: PubChem BioAssay AID1919674
